Where two headings read alike, the source gives them in different places.
Columns and labels:
[1] = biological target: SOS1 (Homo sapiens (Human), UniProt Q07889); experiment: Ras-SOS interaction assay (HTRF), K-Ras G13D utilized; type: binding; conditions: K-Ras G13D
[2] = system: NCI-H1975 (ATCC CRL-5908) cell line comprising an EGFR T790M L858R double mutation; experiment: EGFR-SOS cellular inhibition assay (CellTiter-Glo cell proliferation); type: cell-based; conditions: Homo sapiens, 120 h; NCI-H1975 cell proliferation, approximately 5 days; read-out: H1975 IC50
Procedure: A CellTiter-Glo (CTG) luminescent based assay (Promega) is used to assess growth of the cells, as a measurement of the ability of the compounds herein to inhibit EGFR signaling in the cells. […] The day after plating, cells are treated with a dilution series (e.g., a 9 point 3-fold dilution series) of the compounds herein (e.g., approximately 125 μL final volume per well).

Sequence of SOS1 (Q07889 564-1049): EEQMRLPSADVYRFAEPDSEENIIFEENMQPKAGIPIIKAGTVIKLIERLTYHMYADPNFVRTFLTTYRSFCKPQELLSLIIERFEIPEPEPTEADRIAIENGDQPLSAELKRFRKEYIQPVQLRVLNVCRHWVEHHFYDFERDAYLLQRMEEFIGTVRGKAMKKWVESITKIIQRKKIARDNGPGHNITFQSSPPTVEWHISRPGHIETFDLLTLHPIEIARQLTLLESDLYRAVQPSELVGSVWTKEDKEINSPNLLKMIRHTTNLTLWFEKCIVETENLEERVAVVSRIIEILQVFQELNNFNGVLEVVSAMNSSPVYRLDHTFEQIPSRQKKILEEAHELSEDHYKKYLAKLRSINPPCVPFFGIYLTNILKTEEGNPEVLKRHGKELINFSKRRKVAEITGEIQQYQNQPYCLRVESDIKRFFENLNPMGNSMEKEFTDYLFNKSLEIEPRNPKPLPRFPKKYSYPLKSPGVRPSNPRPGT

Row | IC50 ([1]; read-out: SOS1 IC50) [nM] | IC50 [2] [nM] | IC50 ([1]; read-out: IC50 value against SOS1) [nM] | SMILES
1 | < 100 | < 1000 | – | C[C@H]1Nc2ncnc3c2cc(C2CCS(=O)(=O)CC2)c(=O)n3CCCCCC(C#N)CN2CCC(CC2)C(F)(F)c2cccc1c2 (stereo partly drawn) [Compound 114, (4R)-6^6-(1,1-dioxidotetrahydro-2H-thiopyran-4-yl)-2,2-difluoro-4-methyl-6^7-oxo-6^7,6^8-dihydro-5-aza-6(4,8)-pyrido[2,3-d]pyrimidina-1(4,1)-piperidina-3(1,3)-benzenacyclotridecaphane-12-carbonitrile]
2 | < 100 | < 1000 | – | C[C@H]1Nc2ncnc3c2cc(C2(C#N)CCS(=O)(=O)CC2)c(=O)n3CCCCCCCN2CCC(CC2)C(F)(F)c2cccc1c2 [Compound 116, 4-((4R)-2,2-difluoro-4-methyl-6^7-oxo-6^7,6^8-dihydro-5-aza-6(4,8)-pyrido[2,3-d]pyrimidina-1(4,1)-piperidina-3(1,3)-benzenacyclotridecaphane-6^6-yl)tetrahydro-2H-thiopyran-4-carbonitrile 1,1-dioxide]
3 | < 100 | < 1000 | – | C[C@H]1Nc2ncnc3c2cc(C2CCS(=O)(=O)CC2)c(=O)n3CCCCNC(=O)CN2CCC(CC2)C(F)(F)c2cccc1c2 [Compound 118, (4R)-6^6-(1,1-dioxidotetrahydro-2H-thiopyran-4-yl)-2,2-difluoro-4-methyl-6^7,6^8-dihydro-5,11-diaza-6(4,8)-pyrido[2,3-d]pyrimidina-1(4,1)-piperidina-3(1,3)-benzenacyclotridecaphane-6^7,12-dione]
4 | < 100 | < 1000 | – | C[C@H]1Nc2ncnc3c2cc(N2CCS(=O)(=O)CC2)c(=O)n3CCCCCN2CCC(CC2)CCC(F)(F)c2cccc1c2F [Compound 119, (3R)-1^6-(1,1-dioxidothiomorpholino)-4^2,5,5-trifluoro-3-methyl-1^7,1^8-dihydro-2-aza-1(4,8)-pyrido[2,3-d]pyrimidina-8(4,1)-piperidina-4(1,3)-benzenacyclotridecaphan-1^7-one]
5 | < 100 | < 1000 | – | C[C@H]1Nc2ncnc3nc(c(C4(C#N)CC4)cc23)OCCCCCCN2CCC(CC2)C(F)(F)c2cccc1c2 [Compound 121, (R)-1-(2,2-difluoro-4-methyl-7-oxa-5-aza-6(4,7)-pyrido[2,3-d]pyrimidina-1(4,1)-piperidina-3(1,3)-benzenacyclotridecaphane-6^6-yl)cyclopropane-1-carbonitrile]
6 | < 100 | < 1000 | – | CC(C)N1CCC(c2cc3c4ncnc3n(c2=O)CCOCCCCN2CCC(CC2)CC(F)(F)c2cccc(c2)[C@@H](C)N4)CC1 [Compound 122, (3R)-5,5-difluoro-1^6-(1-isopropylpiperidin-4-yl)-3-methyl-1^7,1^8-dihydro-12-oxa-2-aza-1(4,8)-pyrido[2,3-d]pyrimidina-7(4,1)-piperidina-4(1,3)-benzenacyclotetradecaphan-1^7-one]
7 | < 100 | < 1000 | – | CC(C)N1CCN(c2cc3c4ncnc3n(c2=O)CCCCCCCN2CCC(CC2)C(F)(F)c2cccc(c2)[C@@H](C)N4)CC1 [Compound 123, (4R)-2,2-difluoro-6^6-(4-isopropylpiperazin-1-yl)-4-methyl-6^7,6^8-dihydro-5-aza-6(4,8)-pyrido[2,3-d]pyrimidina-1(4,1)-piperidina-3(1,3)-benzenacyclotridecaphan-6^7-one]
8 | < 100 | < 1000 | – | C[C@H]1Nc2ncnc3c2cc(C2(C#N)CC2)c(=O)n3CCCCNC(=O)CN2CCC(CC2)C(F)(F)c2cccc1c2 [Compound 124, 1-((4R)-2,2-difluoro-4-methyl-6^7,12-dioxo-6^7,6^8-dihydro-5,11-diaza-6(4,8)-pyrido[2,3-d]pyrimidina-1(4,1)-piperidina-3(1,3)-benzenacyclotridecaphane-6^6-yl)cyclopropane-1-carbonitrile]
9 | < 100 | < 1000 | – | C[C@H]1Nc2ncnc3c2cc(C2CCS(=O)(=O)CC2)c(=O)n3CCCCCCCN2CCC(CC2)C(F)(F)c2cccc1c2F [Compound 125, (4R)-6^6-(1,1-dioxidotetrahydro-2H-thiopyran-4-yl)-3^2,2,2-trifluoro-4-methyl-6^7,6^8-dihydro-5-aza-6(4,8)-pyrido[2,3-d]pyrimidina-1(4,1)-piperidina-3(1,3)-benzenacyclotridecaphan-6^7-one]
10 | < 100 | < 1000 | – | C[C@H]1Nc2ncnc3c2cc(C2(C#N)CC2)c(=O)n3CCCCn2cc(nn2)CN2CCC(CC2)C(F)(F)c2cccc1c2F [Compound 126, 1-((6R,Z)-5^2,4,4-trifluoro-6-methyl-8^7-oxo-8^7,8^8-dihydro-1^1H-7-aza-8(4,8)-pyrido[2,3-d]pyrimidina-3(1,4)-piperidina-1(4,1)-triazola-5(1,3)-benzenacyclododecaphane-8^6-yl)cyclopropane-1-carbonitrile]
11 | < 100 | < 1000 | – | C[C@H]1Nc2ncnc3c2cc(C2(C#N)CCS(=O)(=O)CC2)c(=O)n3CCCOCCCCN2CCC(CC2)C(F)(F)c2cccc1c2 [Compound 127, 4-((4R)-2,2-difluoro-4-methyl-6^7-oxo-6^7,6^8-dihydro-10-oxa-5-aza-6(4,8)-pyrido[2,3-d]pyrimidina-1(4,1)-piperidina-3(1,3)-benzenacyclotetradecaphane-6^6-yl)tetrahydro-2H-thiopyran-4-carbonitrile 1,1-dioxide]
12 | < 100 | < 1000 | – | C[C@H]1Nc2ncnc3c2cc(C2(C#N)CC2)c(=O)n3CC(=O)N(C)CCCCN2CCC(CC2)C(F)(F)c2cccc1c2F [Compound 128, 1-((4R)-3^2,2,2-trifluoro-4,9-dimethyl-6^7,8-dioxo-6^7, 6^8-dihydro-5,9-diaza-6(4,8)-pyrido[2,3-d]pyrimidina-1(4,1)-piperidina-3(1,3)-benzenacyclotridecaphane-6^6-yl)cyclopropane-1-carbonitrile]
13 | 100 to 5000 | 1000 to 10000 | – | Cc1nc2c3cc(C4(C#N)CC4)c(=O)n(c3n1)CCCCCCOCC(F)(F)c1cccc(c1F)[C@@H](C)N2 [Compound 130, 1-((3R)-4^2,5,5-trifluoro-1^2,3-dimethyl-1^7-oxo-1^7,1^8-dihydro-7-oxa-2-aza-1(4,8)-pyrido[2,3-d]pyrimidina-4(1,3)-benzenacyclotridecaphane-1^6-yl)cyclopropane-1-carbonitrile]
14 | < 100 | < 1000 | – | C[C@H]1Nc2ncnc3c2cc(C2(C#N)CC2)c(=O)n3CCCCCC/C=C/CN2CCC(CC2)C(F)(F)c2cccc1c2 [Compound 131, 1-((4R,E)-2,2-difluoro-4-methyl-6^7-oxo-6^7,6^8-dihydro-5-aza-6(4,8)-pyrido[2,3-d]pyrimidina-1(4,1)-piperidina-3(1,3)-benzenacyclopentadecaphan-13-en-6^6-yl)cyclopropane-1-carbonitrile]
15 | < 100 | < 1000 | – | C[C@H]1Nc2ncnc3c2cc(C2(C#N)CC2)c(=O)n3CC(=O)NCCCCN2CCC(CC2)C(F)(F)c2cccc1c2 [Compound 132, 1-((4R)-2,2-difluoro-4-methyl-6^7,8-dioxo-6^7,6^8-dihydro-5,9-diaza-6(4,8)-pyrido[2,3-d]pyrimidina-1(4,1)-piperidina-3(1,3)-benzenacyclotridecaphane-6^6-yl)cyclopropane-1-carbonitrile]
16 | < 100 | < 1000 | – | CC(C)N1CCN(c2cc3c4ncnc3n(c2=O)CCOCCCCN2CCC(CC2)CC(F)(F)c2cccc(c2F)[C@@H](C)N4)CC1 [Compound 135, (3R)-4^2,5,5-trifluoro-1^6-(4-isopropylpiperazin-1-yl)-3-methyl-1^7,1^8-dihydro-12-oxa-2-aza-1(4,8)-pyrido[2,3-d]pyrimidina-7(4,1)-piperidina-4(1,3)-benzenacyclotetradecaphan-1^7-one]
17 | < 100 | < 1000 | – | C[C@H]1Nc2ncnc3nc(c(C4(C#N)CC4)cc23)OCCCCCCCN2CCC(CC2)C(F)(F)c2cccc1c2 [Compound 137, (R)-1-(2,2-difluoro-4-methyl-7-oxa-5-aza-6(4,7)-pyrido[2,3-d]pyrimidina-1(4,1)-piperidina-3(1,3)-benzenacyclotetradecaphane-6^6-yl)cyclopropane-1-carbonitrile]
18 | < 100 | < 1000 | < 50 | COc1cc2nc(C)nc3c2cc1OCCOCCOCCOCCOCCNCc1ccc(F)cc1C1=CC=C(S1)C(C)N3 (stereo not shown) [Compound 138, 1^5-fluoro-5^7-methoxy-5^2,3-dimethyl-6,9,12,15,18-pentaoxa-4,21-diaza-5(4,6)-quinazolina-2(2,5)-thiophena-1(1,2)-benzenacyclodocosaphane]
19 | < 100 | < 1000 | – | CC(C)N1CCC(c2cc3c4ncnc3n(c2=O)CCCCCCN2CCC(CC2)CC(F)(F)c2cccc(c2F)[C@@H](C)N4)CC1 [Compound 140, (3R)-4^2,5,5-trifluoro-1^6-(1-isopropylpiperidin-4-yl)-3-methyl-1^7,1^8-dihydro-2-aza-1(4,8)-pyrido[2,3-d]pyrimidina-7(4,1)-piperidina-4(1,3)-benzenacyclotridecaphan-1^7-one]
20 | < 100 | < 1000 | – | Cc1nnc2c3cc(N4CCOCC4)nc(c13)OCCCCCCN1CCC(CC1)C(F)(F)c1cccc(c1)[C@@H](C)N2 [Compound 141, (R)-2,2-difluoro-6^4,4-dimethyl-6^7-morpholino-7-oxa-5-aza-6(1,5)-pyrido[3,4-d]pyridazina-1(4,1)-piperidina-3(1,3)-benzenacyclotridecaphane]
21 | < 100 | < 1000 | – | C[C@H]1Nc2ncnc3c2cc(C2(C#N)CC2)c(=O)n3CCCNC(=O)CCN2CCC(CC2)C(F)(F)c2cccc1c2 [Compound 144, 1-((4R)-2,2-difluoro-4-methyl-6^7,11-dioxo-6^7,6^8-dihydro-5,10-diaza-6(4,8)-pyrido[2,3-d]pyrimidina-1(4,1)-piperidina-3(1,3)-benzenacyclotridecaphane-6^6-yl)cyclopropane-1-carbonitrile]

Source: patent publication US20230339952A1, “MACROCYCLIC HETEROCYCLES AND USES THEREOF” (Kumquat Biosciences Inc., priority 2022, published 2023)
